Reference: article PMC9865589, “Synthesis and Evaluation of Novel S-alkyl Phthalimide- and S-benzyl-oxadiazole-quinoline Hybrids as Inhibitors of Monoamine Oxidase and Acetylcholinesterase” (Pharmaceuticals, 2022)
Where “and” joins values, the source holds several entries; their conditions need not be identical. Identical values can stand only once.

Columns and labels:
Format in all cases: biochemical
MAO-A = target: T1, MAO-A (Homo sapiens, UniProt P21397); test: Monoamine oxidase A inhibition assay (Amplex red fluorescence); conditions: for IC50: average ± SEM, triplicate
T1 sequence (P21397 1-527): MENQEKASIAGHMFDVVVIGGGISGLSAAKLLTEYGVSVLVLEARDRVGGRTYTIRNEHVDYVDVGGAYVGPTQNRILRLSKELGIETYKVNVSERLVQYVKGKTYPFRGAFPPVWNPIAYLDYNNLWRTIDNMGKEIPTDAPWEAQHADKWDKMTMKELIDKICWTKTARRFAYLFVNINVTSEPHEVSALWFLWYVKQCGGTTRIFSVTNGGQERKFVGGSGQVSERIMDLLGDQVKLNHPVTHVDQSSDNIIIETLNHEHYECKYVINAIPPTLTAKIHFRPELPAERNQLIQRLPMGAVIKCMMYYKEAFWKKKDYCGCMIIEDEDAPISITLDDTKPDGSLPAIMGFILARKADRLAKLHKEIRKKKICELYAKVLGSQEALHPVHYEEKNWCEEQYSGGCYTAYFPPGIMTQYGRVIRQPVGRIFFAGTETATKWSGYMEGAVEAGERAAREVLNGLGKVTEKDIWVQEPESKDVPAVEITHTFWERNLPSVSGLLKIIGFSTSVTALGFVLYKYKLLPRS
Description: (§1) Different test chemicals and substrate concentrations were utilized in the kinetic experiments. Lineweaver-Burk plots were employed to determine the kind of inhibition, and they were used to track how the inhibitor affected Km and Vmax by plotting the reciprocal reaction rate against the reciprocal substrate concentrations.
(§2) According to the previously reported protocol, the synthesized compounds’ action on the monoamine oxidase (MAO-A and MAO-B) enzymes was tested. The enzyme was produced just 15 to 20 min before, at a cold room temperature. […] White 96-well plates were utilized for the test. The assay volume was 100 μL, having 60 μL buffer (pH 7.4) and 10 μL test compound (0.1 mM, 10% DMSO), followed by adding enzyme 10 μL (26 μg of protein for MAO-A and 5.0 μg for MAO-B). For MAO-A and MAO-B, the mixture was incubated for 20 and 15 min, respectively. The mixture was then given 10 μL of the substrate and 10 μL of newly prepared Amplex red. […] The non-linear curve fitting tool PRISM 5.0 (GraphPad, San Diego, CA, USA) was employed to compute IC50 values.

MAO-B = target: T2, MAO-B (Homo sapiens, UniProt P27338); test: biochemical
T2 sequence (P27338 1-520): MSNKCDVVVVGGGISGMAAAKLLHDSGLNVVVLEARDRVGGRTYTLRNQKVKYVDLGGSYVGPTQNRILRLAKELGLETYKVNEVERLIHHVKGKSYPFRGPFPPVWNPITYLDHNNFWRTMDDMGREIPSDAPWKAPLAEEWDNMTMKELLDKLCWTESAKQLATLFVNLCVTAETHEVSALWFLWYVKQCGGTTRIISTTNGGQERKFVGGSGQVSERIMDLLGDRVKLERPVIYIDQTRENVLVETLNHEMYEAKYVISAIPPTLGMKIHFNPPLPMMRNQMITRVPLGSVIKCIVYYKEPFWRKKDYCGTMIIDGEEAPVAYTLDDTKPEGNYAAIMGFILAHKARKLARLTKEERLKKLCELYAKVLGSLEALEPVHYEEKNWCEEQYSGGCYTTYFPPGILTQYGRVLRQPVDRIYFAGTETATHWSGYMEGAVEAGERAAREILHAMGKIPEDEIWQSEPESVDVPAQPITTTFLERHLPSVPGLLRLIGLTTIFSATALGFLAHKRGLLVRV
Description: as §1, §2

AChE = AChE (Homo sapiens, UniProt P22303); test: biochemical; conditions: for IC50: average ± SEM, triplicate
Sequence of AChE (P22303 32-614): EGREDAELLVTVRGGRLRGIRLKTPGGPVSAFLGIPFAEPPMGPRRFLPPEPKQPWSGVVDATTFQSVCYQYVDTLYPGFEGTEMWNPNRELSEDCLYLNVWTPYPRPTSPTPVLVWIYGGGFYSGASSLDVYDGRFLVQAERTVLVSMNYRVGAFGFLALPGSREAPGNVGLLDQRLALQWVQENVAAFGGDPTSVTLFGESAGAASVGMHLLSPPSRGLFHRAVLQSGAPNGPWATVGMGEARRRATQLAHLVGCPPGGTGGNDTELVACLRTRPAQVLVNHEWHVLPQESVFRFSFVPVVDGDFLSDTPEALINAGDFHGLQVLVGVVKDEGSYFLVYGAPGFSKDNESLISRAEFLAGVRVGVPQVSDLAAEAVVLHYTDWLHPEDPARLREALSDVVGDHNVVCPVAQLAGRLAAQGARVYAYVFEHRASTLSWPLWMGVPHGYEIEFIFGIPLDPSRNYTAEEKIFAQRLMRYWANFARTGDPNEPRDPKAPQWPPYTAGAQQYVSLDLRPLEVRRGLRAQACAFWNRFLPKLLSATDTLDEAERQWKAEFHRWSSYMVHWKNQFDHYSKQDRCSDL
Text: as §1
All substances were put through a little modified version of Ellman’s test to gauge the effectiveness of their ability to inhibit acetylcholinesterase (AChE). Released thiocholine reacts with chromogenic reagent 5,5-dithio-bis (2-nitrobenzoic) acid to produce a colorful product […]. At a concentration of 2.5 units/mL, the enzyme solutions were prepared. The assay volume was 100 μL, having 60 μL buffer and 10 μL test compound (0.1 mM, 10% DMSO), pursued by inserting enzyme 10 μL […]. The mixture was incubated for 10 min. 10 μL of the substrate and 10 μL of DTNB were added to the mixture.

[1] = Lineweaver-Burk plots, Vmax unaffected, Km increased

Row | Compound | IC50 (MAO-A) | IC50 (MAO-B) [µM] | IC50 (AChE) [µM] | type of inhibition of AChE (AChE; [1]) | type of inhibition of MAO-A (MAO-A; [1]) | type of inhibition of MAO-B (MAO-B; [1])
1 | FC(F)(F)c1cccc(CSc2nnc(-c3cc(-c4ccccc4)nc4ccccc34)o2)c1 [Compound 6b, 4-(5-(3-(Trifluoromethyl)benzylthio)-1,3,4-oxadiazol-2-yl)-2-phenylquinoline] | 1.51 µM and 1.02 µM | 2.71 ± 0.88 | 3.54 ± 1.05 | – | – | –
2 | O=C1c2ccccc2C(=O)N1CCCSc1nnc(-c2cc(-c3ccccc3)nc3ccccc23)o1 [Compound 5c, 2-(3-(5-(2-Phenylquinolin-4-yl)-1,3,4-oxadiazol-2-ylthio)propyl)isoindoline-1,3-dione] | 3.31 ± 0.8 µM | 3.39 ± 0.42 | 1.02 ± 0.65 | pure competitive type of inhibition | – | –
3 | c1ccc(CSc2nnc(-c3cc(-c4ccccc4)nc4ccccc34)o2)cc1 [Compound 6d, 4-(5-(Benzylthio)-1,3,4-oxadiazol-2-yl)-2-phenylquinoline] | 4.16 ± 1.71 µM | 2.9 ± 1.85 | 4.98 ± 1.85 | – | – | –
4 | O=C1c2ccccc2C(=O)N1CCCCCSc1nnc(-c2cc(-c3ccccc3)nc3ccccc23)o1 [Compound 5e, 2-(5-(5-(2-Phenylquinolin-4-yl)-1,3,4-oxadiazol-2-ylthio)pentyl)isoindoline-1,3-dione] | 4.14 ± 0.35 µM | 3.84 ± 0.91 | 1.29 ± 0.75 | – | – | –
5 | FC(F)(F)c1ccc(CSc2nnc(-c3cc(-c4ccccc4)nc4ccccc34)o2)cc1 [Compound 6a, 4-(5-(4-(Trifluoromethyl)benzylthio)-1,3,4-oxadiazol-2-yl)-2-phenylquinoline] | 1.02 µM and 1.51 µM | 3.71 ± 2.88 | 3.23 ± 0.95 | – | – | –
6 | O=C1c2ccccc2C(=O)N1CSc1nnc(-c2cc(-c3ccccc3)nc3ccccc23)o1 [Compound 5a, 2-((5-(2-Phenylquinolin-4-yl)-1,3,4-oxadiazol-2-ylthio)methyl)isoindoline-1,3-dione] | 0.91 ± 0.15 µM | 1.59 ± 1.66 | 1.4 ± 0.45 | – | pure competitive type of inhibition | –
7 | O=C1c2ccccc2C(=O)N1CCCCSc1nnc(-c2cc(-c3ccccc3)nc3ccccc23)o1 [Compound 5d, 2-(4-(5-(2-Phenylquinolin-4-yl)-1,3,4-oxadiazol-2-ylthio)butyl)isoindoline-1,3-dione] | 3.18 ± 1.23 µM | 3.76 ± 1.04 | 2.38 ± 0.92 | – | – | –
8 | FC(F)(F)c1ccccc1CSc1nnc(-c2cc(-c3ccccc3)nc3ccccc23)o1 [Compound 6c, 4-(5-(2-(Trifluoromethyl)benzylthio)-1,3,4-oxadiazol-2-yl)-2-phenylquinoline] | 6.81 ± 2.65 µM | 5.59 ± 3.22 | 4.38 ± 1.45 | – | – | –
9 | O=C1c2ccccc2C(=O)N1CCSc1nnc(-c2cc(-c3ccccc3)nc3ccccc23)o1 [Compound 5b, 2-(2-(5-(2-Phenylquinolin-4-yl)-1,3,4-oxadiazol-2-ylthio)ethyl)isoindoline-1,3-dione] | 1.81 ± 0.38 µM | 2.61 ± 2.48 | 2.55 ± 0.96 | – | – | –
10 | O=C1c2ccccc2C(=O)N1CCCCCCSc1nnc(-c2cc(-c3ccccc3)nc3ccccc23)o1 [Compound 5f, 2-(6-(5-(2-Phenylquinolin-4-yl)-1,3,4-oxadiazol-2-ylthio)hexyl)isoindoline-1,3-dione] | 4.88 ± 1.75 µM | 0.84 ± 0.06 | 3.32 ± 0.45 | – | – | pure competitive type of inhibition
